How the values were obtained:
Type in all cases: in vivo
[1] = system: Zea mays; experiment: Post-emergence herbicidal activity, ZEAMX; settings: Application post-emergence, 1000 g/Ha, evaluated after 13 days, scale 0-5
Protocol: (§1) Seeds of a variety of test species were sown in standard soil in pots. After 8 days cultivation (post-emergence) under controlled conditions in a glasshouse (at 24/16° C., day/night; 14 hours light; 65% humidity), the plants were sprayed with an aqueous spray solution derived from the formulation of the technical active ingredient in acetone/water (50:50) solution containing 0.5% Tween 20 (polyoxyethelyene sorbitan monolaurate, CAS RN 9005-64-5). The test plants were then grown in a glasshouse under controlled conditions (at 24/16° C., day/night; 14 hours light; 65% humidity) and watered twice daily. After 13 days, the test was evaluated (5=total damage to plant; 0=no damage to plant).

[2] = system: Alopecurus myosuroides; experiment: Pre-emergence herbicidal activity, ALOMY; settings: Application pre-emergence, 1000 g/Ha, evaluated after 13 days, scale 0-5
Protocol: as §1, with “After” for “After 8 days”, “for one day (pre-emergence)” for “(post-emergence)”

[3] = system: Zea mays; experiment: Pre-emergence herbicidal activity, ZEAMX; settings: Application pre-emergence, 1000 g/Ha, evaluated after 13 days, scale 0-5
Protocol: as §1, with “After” for “After 8 days”, “for one day (pre-emergence)” for “(post-emergence)”

[4] = system: Setaria faberi; experiment: Pre-emergence herbicidal activity, SETFA; settings: Application pre-emergence, 1000 g/Ha, evaluated after 13 days, scale 0-5
Protocol: as §1, with “After” for “After 8 days”, “for one day (pre-emergence)” for “(post-emergence)”

[5] = system: Alopecurus myosuroides; experiment: Post-emergence herbicidal activity, ALOMY; settings: Application post-emergence, 1000 g/Ha, evaluated after 13 days, scale 0-5
Protocol: as §1

[6] = system: Setaria faberi; experiment: Post-emergence herbicidal activity, SETFA; settings: Application post-emergence, 1000 g/Ha, evaluated after 13 days, scale 0-5
Protocol: as §1

[7] = system: Echinochloa crus-galli; experiment: Pre-emergence herbicidal activity, ECHCG; settings: Application pre-emergence, 1000 g/Ha, evaluated after 13 days, scale 0-5
Protocol: as §1, with “After” for “After 8 days”, “for one day (pre-emergence)” for “(post-emergence)”

[8] = system: Abutilon theophrasti; experiment: Post-emergence herbicidal activity, ABUTH; settings: Application post-emergence, 1000 g/Ha, evaluated after 13 days, scale 0-5
Protocol: as §1

[9] = system: Amaranthus retroflexus; experiment: Pre-emergence herbicidal activity, AMARE; settings: Application pre-emergence, 1000 g/Ha, evaluated after 13 days, scale 0-5
Protocol: as §1, with “After” for “After 8 days”, “for one day (pre-emergence)” for “(post-emergence)”

[10] = system: Abutilon theophrasti; experiment: Pre-emergence herbicidal activity, ABUTH; settings: Application pre-emergence, 1000 g/Ha, evaluated after 13 days, scale 0-5
Protocol: as §1, with “After” for “After 8 days”, “for one day (pre-emergence)” for “(post-emergence)”

[11] = system: Amaranthus retroflexus; experiment: Post-emergence herbicidal activity, AMARE; settings: Application post-emergence, 1000 g/Ha, evaluated after 13 days, scale 0-5
Protocol: as §1

[12] = system: Echinochloa crus-galli; experiment: Post-emergence herbicidal activity, ECHCG; settings: Application post-emergence, 1000 g/Ha, evaluated after 13 days, scale 0-5
Protocol: as §1

Structure (SMILES) | ZEAMX damage score [1] | ALOMY damage score [2] | ZEAMX damage score [3] | SETFA damage score [4] | ALOMY damage score [5] | SETFA damage score [6] | ECHCG damage score [7] | ABUTH damage score [8] | AMARE damage score [9] | ABUTH damage score [10] | AMARE damage score [11] | ECHCG damage score [12]
COCc1cccc(-c2cnc(N3C(=O)N(C)CC3O)cc2C(F)(F)F)c1 (centres unmarked) [Compound A13] | 2 | 2 | 1 | 2 | 3 | 4 | 2 | 5 | 3 | 2 | 5 | 4
CN(C)C(=O)c1cccc(-c2cnc(N3C(=O)N(C)CC3O)cc2C(F)(F)F)c1 (centres unmarked) [Compound A12] | 2 | 0 | 0 | 1 | 2 | 5 | 1 | 5 | 1 | 3 | 5 | 2
CN1CC(O)N(c2cc(C(F)(F)F)c(-c3cccc([S+](C)[O-])c3)cn2)C1=O (centres unmarked) [Compound A11] | 2 | 1 | 0 | 1 | 2 | 3 | 1 | 5 | 2 | 2 | 5 | 3
Cc1cnc(N2C(=O)N(C)CC2O)cc1C(F)(F)F (centres unmarked) [Compound A40] | 4 | 4 | 4 | 4 | 5 | 5 | 5 | 5 | 5 | 5 | 5 | 5
CN1CC(O)N(c2cc(C(F)(F)F)c(-c3ccc(F)nc3)cn2)C1=O (centres unmarked) [Compound A32] | 5 | – | 3 | 5 | – | 5 | 5 | 5 | 5 | 5 | 5 | 5
COc1cncc(-c2cnc(N3C(=O)N(C)CC3O)cc2C(F)(F)F)c1 (centres unmarked) [Compound A33] | 4 | – | 2 | 3 | – | 5 | 4 | 5 | 5 | 5 | 5 | 5
Cc1ccc(-c2cnc(N3C(=O)N(C)CC3O)cc2C(F)(F)F)cn1 (centres unmarked) [Compound A20] | 4 | – | 3 | 5 | – | 5 | 5 | 5 | 5 | 5 | 5 | 5
CN1CC(O)N(c2cc(C(F)(F)F)c(-c3ccncc3C#N)cn2)C1=O (centres unmarked) [Compound A29] | 4 | – | 3 | 5 | – | 5 | 5 | 5 | 5 | 5 | 5 | 5
CCOC(=O)c1cncc(-c2cnc(N3C(=O)N(C)CC3O)cc2C(F)(F)F)c1 (centres unmarked) [Compound A34] | 3 | – | 1 | 3 | – | 5 | 4 | 5 | 5 | 5 | 5 | 5
COCCOCc1cnc(N2C(=O)N(C)CC2O)cc1C(F)(F)F (centres unmarked) [Compound A52] | 5 | – | 4 | 5 | – | 5 | 5 | 5 | 5 | 5 | 5 | 5
CN1CC(O)N(c2cc(C(F)(F)F)c(-c3cnn(C)c3)cn2)C1=O (centres unmarked) [Compound A28] | 5 | – | 3 | 4 | – | 5 | 5 | 5 | 5 | 5 | 5 | 5
CN1CC(O)N(c2cc(C(F)(F)F)c(-c3cccc(C#N)c3)cn2)C1=O (centres unmarked) [Compound A17] | – | 4 | 2 | 4 | 5 | 5 | 5 | 5 | 5 | 5 | 5 | 5
COC(C)(C)c1ccnc(N2C(=O)N(C)CC2O)c1 (centres unmarked) [Compound A49] | 3 | – | 2 | 5 | – | 5 | 5 | 5 | 5 | 5 | 5 | 5
CN1CC(O)N(c2cc(C(F)F)ccn2)C1=O (centres unmarked) [Compound A44] | 4 | – | 2 | 5 | – | 5 | 4 | 5 | 5 | 5 | 5 | 5
CN1CC(O)N(c2cc(C(F)(F)F)c(-c3cnc(C#N)nc3)cn2)C1=O (centres unmarked) [Compound A27] | 3 | – | 1 | 2 | – | 3 | 3 | 5 | 5 | 5 | 5 | 5
CN1CC(O)N(c2cc(C(F)(F)F)c(NC(=O)C(C)(C)C)cn2)C1=O (centres unmarked) [Compound A42] | 5 | – | 3 | 5 | – | 5 | 5 | 5 | 5 | 5 | 5 | 5
CN1CC(O)N(c2cc(C(F)(F)F)c(C(=O)NC(C)(C)C)cn2)C1=O (centres unmarked) [Compound A43] | 5 | – | 2 | 5 | – | 5 | 5 | 5 | 5 | 5 | 5 | 5
COc1cc(-c2cnc(N3C(=O)N(C)CC3O)cc2C(F)(F)F)ccn1 (centres unmarked) [Compound A24] | 5 | – | 2 | 5 | – | 5 | 5 | 5 | 5 | 5 | 5 | 5
CN1CC(O)N(c2cc(C(F)(F)F)c(-c3ccc(N4CCOCC4)nc3)cn2)C1=O (centres unmarked) [Compound A31] | 2 | – | 0 | 2 | – | 5 | 0 | 5 | 2 | 2 | 5 | 4
COC(F)(F)c1ccnc(N2C(=O)N(C)CC2O)c1 (centres unmarked) [Compound A50] | 1 | – | 1 | 2 | – | 5 | 1 | 5 | 5 | 2 | 5 | 5
